Measurements as given in patent publication US20170283850A1, “METHODS OF DETECTING ADENOSINE DEAMINASE DEFICIENCY” (CHILDREN'S HOSPITAL OF EASTERN ONTARIO, priority 2014, published 2017).

Legend:
[1] = Stability of purine metabolites in DBS on storage; format: physicochemical; conditions: 5 and 25 μmol/L in DBS, stored 4.5 weeks at −20° C., 23° C. (ambient) and 30° C.
Experimental: Stability of purine metabolites in DBS was assessed by storing spiked samples (5 and 25 μmol/L) at various temperatures (ambient, −20° C. and 30° C.). Analysis was carried out as described over a period of […].
Analysis of DBS specimens containing Ado, dAdo, Gua and dGua at 5 and 25 μmol/L stored for a period of 4.5 weeks at −20° C., 23° C.

[2] = Loss of standard purines added to whole blood (residual ADA activity); format: in vitro ADME; conditions: whole blood without EHNA
Experimental: DBS calibrators could not be prepared in this work due to residual ADA activity that persisted after traditional enzyme deactivation treatments such as freeze-thawing or heating whole blood at 45° C. for 24 hours. EHNA, a specific ADA inhibitor, was added to whole blood to prevent the deamination of Ado and dAdo to inosine and deoxyinosine, respectively. Purine metabolites were extracted from 3.2 mm dried calibrators or DBS specimens using an aqueous solution of 70% methanol (v/v) containing isotope labeled IS. This solution was added directly into a 96-well plate containing samples and incubated at 37° C. with shaking (650 rpm). The extraction yield reached its maximum at 15 minutes or more. The following experiments therefore were performed at 37° C. for 15 min. Purine metabolites were stable for at least 24 h when stored in a tightly sealed vial at 8° C.
SCID newborn screening began in the United States following the recent addition of this condition to the uniform panel as recommended by the US Department of Health and Human Services. In Canada, Ontario was the first jurisdiction to screen for SCID, which began in August, 2013. TREC analysis is the primary screening method and can be achieved by real-time PCR using neonatal DBS, the sample of choice for newborn screening. However, TREC analysis is inadequate to provide additional information regarding the etiology of SCID. […]

ADA = ADA (Homo sapiens, UniProt P00813); conditions: DBS eluate, substrate 1.0 μmol/L, 37° C., 30 minutes or more
ADA, sequence (P00813 whole entry): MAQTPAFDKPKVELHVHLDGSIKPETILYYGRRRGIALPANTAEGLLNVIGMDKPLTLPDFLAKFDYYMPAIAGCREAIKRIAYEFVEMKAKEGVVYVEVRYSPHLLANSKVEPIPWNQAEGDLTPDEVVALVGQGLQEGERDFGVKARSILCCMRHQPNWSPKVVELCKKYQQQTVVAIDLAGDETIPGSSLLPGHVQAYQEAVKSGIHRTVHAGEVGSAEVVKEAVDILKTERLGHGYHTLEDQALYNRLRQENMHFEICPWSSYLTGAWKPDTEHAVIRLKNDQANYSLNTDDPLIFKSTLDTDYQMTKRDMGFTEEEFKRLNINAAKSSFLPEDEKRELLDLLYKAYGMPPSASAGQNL
Experimental: A 3.2 mm DBS sample was punched into the designated well of a 96 multi-well filter plate (Pall Corp, Ann Arbor, Mich., USA) and eluted using 120 μl of water by shaking at 650 rpm (24° C. for 30 min). After filtration under vacuum, two 40 μl portions of the eluate were dispensed into two 2 ml microtubes (Axygen, Union City, Calif., USA) and labeled Test and Blank. To the tube labeled Test, 10 μl of 10 μmol/l of EHNA in water were added whereas water (10 μl) was added to Blank tubes. The tubes were vortexed for 10 sec and allowed to sit at room temperature for 5 min. To each tube, 50 μl 2 mmol/L ammonium acetate containing 1 μmol/L of ^13C10, ^15N5 Ado and ^15N5 dAdo were added as ADA substrates. The mixture was incubated at 37° C. with shaking (20 rpm). After 30 minutes, the enzymatic reaction was stopped by adding 400 μl of acetonitrile containing ^13C5 Ado (0.125 μmol/L) and the mixture was vortexed for 30 sec. […] The enzyme activity expressed as pmol of residual substrate per DBS was measured by calculating the difference of ^13C10, ^15N5 Ado and ^15N5 dAdo in Test and Blank after the enzymatic reaction.
ADA activity assay conditions were determined by monitoring the enzyme reaction (up to 60 min), substrate concentration (1-10 μmol/L), EHNA concentration (2.5-160 NM) and incubation temperature (30-60° C.).

Row | Molecule | Stability in DBS specimens [1] | Stability on adding standard purines to whole blood [2] | Optimum EHNA concentration for ADA activity measurements (ADA) [µM]
1 | Nc1ncnc2c1ncn2[C@@H]1O[C@H](CO)[C@@H](O)[C@H]1O [Ado, adenosine] | stable | immediate loss | –
2 | Nc1nc2c(ncn2[C@@H]2O[C@H](CO)[C@@H](O)[C@H]2O)c(=O)[nH]1 [Gua, guanosine] | stable | – | –
3 | Nc1ncnc2c1ncn2[C@H]1C[C@H](O)[C@@H](CO)O1 [dAdo, deoxyadenosine] | stable | immediate loss | –
4 | Nc1nc2c(ncn2[C@H]2C[C@H](O)[C@@H](CO)O2)c(=O)[nH]1 [dGua, deoxyguanosine] | stable | – | –
5 | erythro-9-(2-hydroxy-3-nonyl) adenine [EHNA] | – | – | ≥ 10
